Here are results for 26 molecules from PubChem BioAssay AID248 (DTP/NCI, 2004).

The experiment relates to L1210 leukemia ip in BDF1 mice, survival T/C. Description: NCI In Vivo Anticancer Drug Screen. Data for tumor model L1210 Leukemia (intraperitoneal) in B6D2F1 (BDF1) mice. The conditions noted are these: endpoint: mean survival time, higher = longer survival. A digest of the protocol:
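Antitumor effect is assessed in tumor-bearing animals. Survival in the compound arm is compared with a vehicle-dosed control arm and expressed as their quotient.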

[1] abbreviates: dose: 100.0 mg/kg/injection, schedule: Q01DX001 (ip), vehicle: saline.
Where [2] appears, read: dose: 200.0 mg/kg/injection, schedule: Q01DX001 (ip), vehicle: saline.
Where [3] appears, read: dose: 400.0 mg/kg/injection, schedule: Q01DX001 (ip), vehicle: saline.
Setting [4] is: dose: 100.0 mg/kg/injection, schedule: Q01DX009 (ip), vehicle: saline with Tween-80.
[5] abbreviates: dose: 50.0 mg/kg/injection, schedule: Q01DX001 (ip), vehicle: saline.
The mark [6] stands for this setting: dose: 100.0 mg/kg/injection, schedule: Q04DX002 (ip), vehicle: saline with Tween-80.
Setting [7] is: dose: 200.0 mg/kg/injection, schedule: Q04DX002 (ip), vehicle: saline with Tween-80.
Setting [8] is: dose: 400.0 mg/kg/injection, schedule: Q04DX002 (ip), vehicle: saline with Tween-80.
Setting [9] is: dose: 100.0 mg/kg/injection, schedule: Q04DX002 (ip), vehicle: Klucel (hydroxypropylcellulose) (HPC).
The mark [10] stands for this setting: dose: 200.0 mg/kg/injection, schedule: Q04DX002 (ip), vehicle: Klucel (hydroxypropylcellulose) (HPC).
Where [11] appears, read: dose: 100.0 mg/kg/injection, schedule: Q04DX003 (ip), vehicle: saline.
The mark [12] stands for this setting: dose: 200.0 mg/kg/injection, schedule: Q04DX003 (ip), vehicle: saline.
Setting [13] is: dose: 100.0 mg/kg/injection, schedule: Q04DX003 (ip), vehicle: saline with Tween-80.
Setting [14] is: dose: 200.0 mg/kg/injection, schedule: Q04DX003 (ip), vehicle: saline with Tween-80.
Where [15] appears, read: dose: 75.0 mg/kg/injection, schedule: Q01DX001 (ip), vehicle: saline.
Where [16] appears, read: dose: 400.0 mg/kg/injection, schedule: Q04DX002 (ip), vehicle: Klucel (hydroxypropylcellulose) (HPC).

SMILES strings stand for the structures. “And” between values parts separate entries of the source, which are not always exact repeats. Equal values may be shown once. Inconclusive results and toxic doses are left out.

Regarding `CC(=O)SC1CC(=O)OC1=O` (stereo unspecified), the T/C is, setting by setting: (dose: 50.0 mg/kg/injection, schedule: Q01DX009 (ip), vehicle: saline) 96 % of control; under setting [1], 96 % of control; (dose: 100.0 mg/kg/injection, schedule: Q01DX009 (ip), vehicle: saline) 102 % of control; under setting [2], 104 % of control; under setting [3], 98 % of control.
For the molecule `O=Cc1nccc2c1[nH]c1ccccc12`, the T/C (dose: 25.0 mg/kg/injection, schedule: Q01DX009 (ip), vehicle: saline with Tween-80) is 96 % of control; the T/C (dose: 50.0 mg/kg/injection, schedule: Q01DX009 (ip), vehicle: saline with Tween-80) was 97 % of control; the T/C under setting [4] is 86 % of control and 90 % of control.
`N#CSCN1C(=O)C2CC=CCC2C1=O` (stereo unspecified): for the setting “dose: 25.0 mg/kg/injection, schedule: Q04DX003 (ip), vehicle: saline with Tween-80”, the T/C is 97 % of control.
Take `O=[N+]([O-])c1ccc2nncn2c1`: the T/C is 91 % of control under setting [5], 97 % of control under setting [1], 103 % of control under setting [2] and 101 % of control under setting [3].
Turning to `N#CCCN(CCCN1CCOCC1)C(=S)Nc1ccc(Cl)cc1`, the T/C under setting [6] was 94 % of control, the T/C under setting [7] was 90 % of control and the T/C under setting [8] is 101 % of control.
Take `Fc1ccc(Cc2nnc(Cc3ccc(F)cc3)nn2)cc1`: the T/C reads like this: under setting [9], 105 % of control; under setting [10], 102 % of control.
Turning to `[Cl][Pt+2][Cl].[NH-]CC1CCCC[N-]1` (stereo unspecified), the T/C (dose: 3.13 mg/kg/injection, schedule: Q04DX003 (ip), vehicle: saline) was 111 % of control; the T/C (dose: 6.25 mg/kg/injection, schedule: Q04DX003 (ip), vehicle: saline) was 108 % of control; the T/C (dose: 12.5 mg/kg/injection, schedule: Q04DX003 (ip), vehicle: saline) is 122 % of control; the T/C under setting [11] is 163 % of control; the T/C under setting [12] was 120 % of control.
With `CC[CH2][Sn]([Br])([CH2]CC(=O)OC)[CH2]CC(=O)OC`, the T/C runs as follows: under setting [6], 93 % of control; under setting [7], 96 % of control.
As to `CCCCCCCCC[n+]1cccc(C(=O)c2ccccc2)c1`, the T/C is 98 % of control (dose: 9.38 mg/kg/injection, schedule: Q01DX001 (ip), vehicle: saline); 100 % of control (dose: 18.75 mg/kg/injection, schedule: Q01DX001 (ip), vehicle: saline); 105 % of control (dose: 37.5 mg/kg/injection, schedule: Q01DX001 (ip), vehicle: saline).
Consider `CCC/C=C/C(C)C`, for which the T/C (dose: 100.0 mg/kg/injection, schedule: Q01DX009 (ip), vehicle: Klucel (hydroxypropylcellulose) (HPC)) was 105 % of control; the T/C (dose: 100.0 mg/kg/injection, schedule: Q04DX003 (ip), vehicle: Klucel (hydroxypropylcellulose) (HPC)) is 93 % of control; the T/C (dose: 200.0 mg/kg/injection, schedule: Q01DX009 (ip), vehicle: Klucel (hydroxypropylcellulose) (HPC)) is 92 % of control; the T/C (dose: 200.0 mg/kg/injection, schedule: Q04DX003 (ip), vehicle: Klucel (hydroxypropylcellulose) (HPC)) is 97 % of control; the T/C (dose: 400.0 mg/kg/injection, schedule: Q01DX009 (ip), vehicle: Klucel (hydroxypropylcellulose) (HPC)) was 95 % of control; the T/C (dose: 400.0 mg/kg/injection, schedule: Q04DX003 (ip), vehicle: Klucel (hydroxypropylcellulose) (HPC)) was 101 % of control.
Regarding `O=C1OC2CCC3C1C3C2Br` (stereo unspecified), under “dose: 25.0 mg/kg/injection, schedule: Q01DX009 (ip), vehicle: acetone”, the T/C was 92 % of control.
With `COC(=O)c1ccc[n+](C)c1`, the T/C reads like this: (dose: 100.0 mg/kg/injection, schedule: Q04DX002 (ip), vehicle: saline) 104 % of control; (dose: 200.0 mg/kg/injection, schedule: Q04DX002 (ip), vehicle: saline) 101 % of control.
With `CC(C)(C)c1cccc(OS(=O)(=O)c2cccc([N+](=O)[O-])c2)c1`, the T/C by setting is: under setting [13], 95 % of control; under setting [14], 100 % of control; (dose: 400.0 mg/kg/injection, schedule: Q04DX003 (ip), vehicle: saline with Tween-80) 100 % of control.
In the case of `CN1CCN(CCSC(=O)N2c3ccccc3Sc3ccc(Cl)cc32)CC1`, the T/C under setting [15] is 94 % of control.
On to `O=C(O)C(Cl)C(=O)O`, for which the T/C by setting is: (dose: 4.68 mg/kg/injection, schedule: Q01DX009 (ip), vehicle: saline) 102 % of control; (dose: 9.37 mg/kg/injection, schedule: Q01DX009 (ip), vehicle: saline) 102 % of control; (dose: 18.75 mg/kg/injection, schedule: Q01DX009 (ip), vehicle: saline) 94 % of control; (dose: 18.75 mg/kg/injection, schedule: Q04DX003 (ip), vehicle: saline) 105 % of control; (dose: 37.5 mg/kg/injection, schedule: Q04DX003 (ip), vehicle: saline) 97 % of control; under setting [15], 107 % of control.
`Cc1cc(C)c(C[N+](C)(C)C)c(C)c1C`: under setting [5], the T/C is 102 % of control.
Regarding `Cc1ccc2cc3c4ccccc4ccc3[n+](C)c2c1`, the T/C was 100 % of control (dose: 75.0 mg/kg/injection, schedule: Q01DX001 (ip), vehicle: carboxymethylcellulose (CMC)); 100 % of control (dose: 150.0 mg/kg/injection, schedule: Q01DX001 (ip), vehicle: carboxymethylcellulose (CMC)); 102 % of control (dose: 300.0 mg/kg/injection, schedule: Q01DX001 (ip), vehicle: carboxymethylcellulose (CMC)).
As to `Clc1cc(Cc2ccc(N=C/C=C/c3ccccc3)c(Cl)c2)ccc1N=C/C=C\c1ccccc1`, the T/C under setting [9] is 100 % of control, the T/C under setting [10] was 93 % of control and the T/C under setting [16] was 86 % of control.
In the case of `NC(=O)C(c1ccccc1)C(O)c1ccccc1` (stereo unspecified), the T/C under setting [5] was 101 % of control, the T/C under setting [1] is 95 % of control, the T/C under setting [2] is 97 % of control and the T/C under setting [3] was 101 % of control.
On to `O=C(CCc1ccccc1)Nc1ccc(F)cc1`, for which the T/C is 95 % of control (dose: 100.0 mg/kg/injection, schedule: Q01DX001 (ip), vehicle: saline with Tween-80); 97 % of control and 106 % of control under setting [4]; 94 % of control and 98 % of control under setting [6]; 95 % of control (dose: 200.0 mg/kg/injection, schedule: Q01DX001 (ip), vehicle: saline with Tween-80); 93 % of control and 95 % of control (dose: 200.0 mg/kg/injection, schedule: Q01DX009 (ip), vehicle: saline with Tween-80); 94 % of control and 102 % of control under setting [7]. In addition, the T/C (dose: 400.0 mg/kg/injection, schedule: Q01DX001 (ip), vehicle: saline with Tween-80) is 94 % of control; the T/C (dose: 400.0 mg/kg/injection, schedule: Q01DX009 (ip), vehicle: saline with Tween-80) was 98 % of control and 101 % of control; the T/C under setting [8] is 94 % of control and 97 % of control.
For `CN(Cc1ccccc1)C(=O)c1cccc(C(=O)N(C)Cc2ccccc2)c1`, the T/C is, setting by setting: (dose: 100.0 mg/kg/injection, schedule: Q01DX009 (ip), vehicle: other) 97 % of control; (dose: 200.0 mg/kg/injection, schedule: Q01DX009 (ip), vehicle: other) 97 % of control; (dose: 400.0 mg/kg/injection, schedule: Q01DX009 (ip), vehicle: other) 94 % of control.
Turning to `Cc1cnc(SCc2ccc(F)cc2)nc1N(C)C`, where the note is “dose: 100.0 mg/kg/injection, schedule: Q01DX Z (ip), vehicle: methylcellulose (MC)”, the T/C was 88 % of control.
Turning to `O=Cc1cc(=O)[nH]c(=O)[nH]1`, the T/C was 109 % of control under setting [5], 109 % of control under setting [1], 105 % of control under setting [2] and 97 % of control under setting [3].
Take `COC(C(=O)O)c1cccc2ccccc12` (stereo unspecified): the T/C is, setting by setting: under setting [9], 113 % of control; under setting [10], 109 % of control; under setting [16], 98 % of control.
In the case of `CC(C)N(C(=O)/C=C/C(=O)N(C(C)C)C(C)C)C(C)C`, the T/C reads like this: (dose: 25.0 mg/kg/injection, schedule: Q04DX003 (ip), vehicle: saline) 92 % of control; (dose: 50.0 mg/kg/injection, schedule: Q04DX003 (ip), vehicle: saline) 95 % of control; under setting [13], 100 % of control; under setting [11], 98 % of control; under setting [14], 96 % of control.
As for `O=C(CCNC(=O)c1ccccc1)Oc1ccccc1`, the T/C under setting [11] is 93 % of control; the T/C under setting [12] is 95 % of control; the T/C (dose: 400.0 mg/kg/injection, schedule: Q04DX003 (ip), vehicle: saline) is 92 % of control.
